Drawing on BindingDB's records for doi:10.1021/acs.jmedchem.8b01602 (2018), this text covers IC50 and Kd for 4 compounds.

The nature of test [1]: Inhibition of mouse GAT3 expressed in HEK293 cells assessed as reduction in [3H]GABA uptake preincubated for 25 mins followed by [3H]GABA addition and measured after 4 mins by liquid scintillation counting method.
A short description of test [2]: Inhibition of mouse GAT2 expressed in HEK293 cells assessed as reduction in [3H]GABA uptake preincubated for 25 mins followed by [3H]GABA addition and measured after 10 mins by liquid scintillation counting method.
Test [3] is described as follows: Non-competitive inhibition of human GAT1 expressed in COS cells assessed as reduction in [2H6]GABA uptake by measuring [2H6]GABA Kd(app) at 1 uM preincubated for 25 mins followed by [2H6]GABA addition and measured after 4 mins by liquid scintillation counting method (Rvb = 28.3 +/- 1.5 nM).
A short description of test [4]: Non-competitive inhibition of human GAT1 expressed in COS cells assessed as reduction in [2H6]GABA uptake by measuring [2H6]GABA Kd(app) at 10 uM preincubated for 25 mins followed by [2H6]GABA addition and measured after 4 mins by liquid scintillation counting method (Rvb = 28.3 +/- 1.5 nM).

Take `O=C(O)[C@H]1CNC[C@@H](CCN/N=C/c2ccc(-c3ccc(C(F)(F)F)cc3Cl)o2)C1`: the figures for the IC50 in test [1] and in test [2] were 58.9 µM and 53.7 µM, respectively.

Take `O=C(O)[C@H]1CNC[C@@H](CN/N=C/c2ccc(-c3cccc4ccccc34)o2)C1`: the IC50 in test [1] came to 33.1 µM. Besides, the Kd in test [3] was found to be 0.056 µM; in test [4], 0.112 µM.

Consider `O=C(O)[C@H]1CNC[C@@H](CCN/N=C/c2ccc(-c3ccc(Cl)cc3Cl)o2)C1`, for which the IC50 in test [1] is 25.7 µM; in test [2] it was 53.7 µM.

Consider `O=C(O)[C@H]1CNC[C@@H](CN/N=C/c2ccc(-c3cc(C(F)(F)F)cc(C(F)(F)F)c3)o2)C1`, for which the Kd in test [3] worked out at 0.058 µM; in test [4] it was 0.154 µM.

In general, IC50 refers to the midpoint of a concentration-inhibition curve.
